Values of other authors, collected in patent publication US5026825A, “Intranasal calcitonin formulations” (Rhone-Poulenc Rorer Pharmaceuticals Inc., priority 1988, dated 1991).
Like-named read-outs stand apart in the source and are kept apart here. Ends that are not written are not given here.

Conditions: for potency (level of hypocalcemic activity): in vivo
[1] = calcitonins used in Examples 7-10, from cited US patents

| Substance | potency [1] | potency (level of hypocalcemic activity) | also measured |
| --- | --- | --- | --- |
| 1A-endo-glycine-calcitonin | 4,650 IU/mg | – | – |
| D-Arginine^24 Calcitonins | 5,000 IU/mg | – | – |
| Des asparagine-3-Calcitonins | – | – | potency (calcitonin used in Example 6, USP 4,391,747): 4,300 MRC units/mg |
| Glycine^8 -D-Arginine^24 Calcitonins | 3,500 IU/mg | – | – |
| [16-Alanine] Calcitonins [16-alanine calcitonin] | 6,200 IU/mg | – | – |
| beef calcitonin: natural calcitonin of beef (bovine) (CSNLSTCVLSAYWKDLNNYHRFSGMGFGPETP; ends and bridges not checked; cysteine pairing not given here; UniProt P01260 1-32, looked up) | – | 100 to 200 MRC U/mg peptide | – |
| chicken calcitonin (CASLSTCVLGKLSQELHKLQTYPRTDVGAGTP; ends and bridges not checked; cysteine pairing not given here; UniProt P07660 82-113, looked up) [natural calcitonin of chicken] | – | 4,000 to 6,000 MCR (Medical Research Council) U/mg peptide | – |
| eel calcitonin | – | 2,000 to 4,000 MRC U/mg peptide | – |
| hog calcitonin: natural calcitonin of hog (porcine) (CSNLSTCVLSAYWRNLNNFHRFSGMGFGPETP; ends and bridges not checked; cysteine pairing not given here; UniProt P01259 1-32, looked up) | – | 100 to 200 MRC U/mg peptide | – |
| man calcitonin: natural calcitonin of man (human) | – | 100 to 200 MRC U/mg peptide | – |
| rat calcitonin: natural calcitonin of rat (CGNLSTCMLGTYTQDLNKFHTFPQTSIGVGAP; ends and bridges not checked; cysteine pairing not given here; UniProt P01257 85-116, looked up) | – | 400 MRC U/mg | – |
